What all share (assay): microbe, parasite or virus in culture
Experiment [1] deals with low level vancomycin resistant E. faecium (vanB) ATCC 51299. The settings on record: Table 5; low level vancomycin resistant E. faecium ATCC 51299. Here is the method: (§1) The L-peptides identified from five different phage display libraries were catalogued as described previously and selected sequences were synthesized in D-enantiomeric form by SPPS for further investigation in several biological assays.
(§2) MICs were determined according to a 96-well microdilution protocol outlined by the Clinical and Laboratory Standard Institute (CLSI) guideline with modifications for peptide antibiotics reported by Wiegand et al.^35 Two-fold serial peptide dilutions were performed to go from 2560 μg/ml to 5 μg/ml in0.2% BSA and 0.01% acetic acid buffer in 96-well polypropylene plates (COSTAR, #3879). Dilution of bacterial suspensions (1:200) of different bacterial strains that were grown until 0.5 McFarland standard were prepared to obtain a final inoculum concentration of 8×10^5 CFU/ml in Mueller-Hinton broth.

Experiment [2] concerns high level vancomycin resistant E. faecium (vanA) ATCC 51559. The settings on record: ATCC 51559. The procedure:
as §1, §2

The subject of experiment [3] is Methicillin-resistant S. aureus (MRSA) ATCC 43300. The settings on record: ATCC 43300. Here is the method:
as §1, §2

The test system of another experiment is S. aureus ATCC 6538. The settings on record: ATCC 6538. Here is the method:
as §1, §2

Another experiment concerns E. faecalis ATCC 29121. To be noted: ATCC 29121. Here is the method:
as §1, §2

A further experiment has as its system E. coli ATCC 25992. The settings on record: ATCC 25992. Here is the method:
as §1, §2

The next experiment has as its system B. subtilis ATCC 6633. The settings on record: ATCC 6633. The procedure: as §1, §2

Values after ≈ are worked out from the molar mass of the structure shown. Square brackets hold non-standard residues; d marks the D form. Peptide text beside a SMILES is read from it. A value given as a limit tells only on which side of the number the result lay.

Turning to `CC(C)C[C@@H](NC(=O)[C@@H](CC(N)=O)NC(=O)[C@@H](CO)NC(=O)CNC(=O)[C@H](N)C(C)C)C(=O)N[C@H](CCCNC(=N)N)C(=O)N[C@H](CC(C)C)C(=O)N[C@H](CC(C)C)C(=O)N[C@H](Cc1c[nH]cn1)C(=O)N[C@H](CCC(N)=O)C(=O)N[C@H](Cc1c[nH]c2ccccc12)C(=O)N[C@H](CCCCN)C(N)=O` [P3, VGSNLRLLHQWK] (H-[dV]G[dS][dN][dL][dR][dL][dL][dH][dQ][dW][dK]-NH2), the “MIC VRE (vanB)” value in experiment [1] was above 256 µg/mL. Moreover, in experiment [2], the “MIC VRE (vanA)” value was above 256 µg/mL. The “MIC MRSA” value in experiment [3] was 64 µg/mL (≈ 44.1 µM). The “MIC S. aureus” value in the experiment with S. aureus ATCC 6538 amounted to 32 µg/mL (≈ 22.1 µM). For the same compound, the “MIC E. faecalis” value in the experiment with E. faecalis ATCC 29121 came to 32 µg/mL (≈ 22.1 µM). The “MIC E. coli” value with E. coli ATCC 25992 is above 256 µg/mL. In addition, in the experiment with B. subtilis ATCC 6633, the “MIC B. subtilis” value is 32 µg/mL (≈ 22.1 µM).
On to `CC(C)[C@@H](N)C(=O)N[C@H](Cc1c[nH]cn1)C(=O)N[C@H](Cc1c[nH]c2ccccc12)C(=O)N[C@H](CC(=O)O)C(=O)N[C@H](Cc1ccccc1)C(=O)N[C@H](CCCNC(=N)N)C(=O)N[C@H](CCC(N)=O)C(=O)N[C@H](Cc1c[nH]c2ccccc12)C(=O)N[C@H](Cc1c[nH]c2ccccc12)C(=O)N[C@H](CCC(N)=O)C(=O)N1CCC[C@@H]1C(=O)N[C@H](CO)C(N)=O` [P4, VHWDFRQWWQPS] (H-[dV][dH][dW][dD][dF][dR][dQ][dW][dW][dQ][dP][dS]-NH2), for which, in experiment [1], the “MIC VRE (vanB)” value was determined as 128 µg/mL (≈ 76.6 µM). In experiment [2], the “MIC VRE (vanA)” value was above 256 µg/mL. In experiment [3], the “MIC MRSA” value is 64 µg/mL (≈ 38.3 µM). Besides, the “MIC S. aureus” value in the experiment on S. aureus ATCC 6538 turned out to be 32 µg/mL (≈ 19.2 µM). For the same compound, the “MIC E. faecalis” value with E. faecalis ATCC 29121 was determined as 32 µg/mL (≈ 19.2 µM). For the same compound, the “MIC E. coli” value against E. coli ATCC 25992 was above 256 µg/mL. The “MIC B. subtilis” value in the experiment with B. subtilis ATCC 6633 worked out at 32 µg/mL (≈ 19.2 µM).
On to `CC(C)C[C@@H](NC(=O)[C@H](NC(=O)[C@@H](Cc1ccc(O)cc1)NC(=O)[C@@H](CS)NC(=O)[C@@H](CS)NC(=O)[C@H](N)CCCCN)[C@H](C)O)C(=O)N1CCC[C@@H]1C(N)=O` [P5, KCCYTLP] (H-[dK][dC][dC][dY][dT][dL][dP]-NH2), for which the “MIC VRE (vanB)” value in experiment [1] was above 256 µg/mL. Further, the “MIC VRE (vanA)” value in experiment [2] is above 256 µg/mL. In addition, the “MIC MRSA” value in experiment [3] is above 256 µg/mL. In addition, the “MIC S. aureus” value with S. aureus ATCC 6538 worked out at 128 µg/mL (≈ 155 µM). Moreover, the “MIC E. faecalis” value against E. faecalis ATCC 29121 is above 256 µg/mL. Further, in the experiment with E. coli ATCC 25992, the “MIC E. coli” value was above 256 µg/mL. In addition, in the experiment on B. subtilis ATCC 6633, the “MIC B. subtilis” value amounted to 128 µg/mL (≈ 155 µM).
Turning to `CC(C)C[C@@H](NC(=O)[C@H](N)C(C)C)C(=O)N[C@@H](C(=O)N[C@H](CCCNC(=N)N)C(=O)N[C@H](CS)C(=O)N[C@H](CS)C(=O)NCC(N)=O)[C@H](C)O` [P6, VLTRCCG] (H-[dV][dL][dT][dR][dC][dC]G-NH2), in experiment [1], the “MIC VRE (vanB)” value was above 256 µg/mL. In experiment [2], the “MIC VRE (vanA)” value is above 256 µg/mL. The “MIC MRSA” value in experiment [3] is above 256 µg/mL. For the same compound, the “MIC S. aureus” value in the experiment with S. aureus ATCC 6538 was 128 µg/mL (≈ 171 µM). The “MIC E. faecalis” value in the experiment on E. faecalis ATCC 29121 was above 256 µg/mL. Besides, in the experiment with E. coli ATCC 25992, the “MIC E. coli” value was above 256 µg/mL. Further, the “MIC B. subtilis” value with B. subtilis ATCC 6633 came out at 128 µg/mL (≈ 171 µM).
On to `CC[C@@H](C)[C@@H](NC(=O)[C@@H](Cc1ccc(O)cc1)NC(=O)[C@H](N)Cc1c[nH]cn1)C(=O)N[C@H](CC(=O)O)C(=O)N[C@H](Cc1ccccc1)C(=O)N[C@H](CCCNC(=N)N)C(=O)N[C@H](Cc1c[nH]c2ccccc12)C(N)=O` [P8, HYIDFRW] (H-[dH][dY][dI][dD][dF][dR][dW]-NH2), for which the “MIC VRE (vanB)” value in experiment [1] was above 256 µg/mL. Further, in experiment [2], the “MIC VRE (vanA)” value was above 256 µg/mL. In addition, the “MIC MRSA” value in experiment [3] was 64 µg/mL (≈ 61.8 µM). The “MIC E. faecalis” value against E. faecalis ATCC 29121 came out at 64 µg/mL (≈ 61.8 µM). Further, in the experiment on E. coli ATCC 25992, the “MIC E. coli” value is above 256 µg/mL. In addition, the “MIC B. subtilis” value against B. subtilis ATCC 6633 was determined as 32 µg/mL (≈ 30.9 µM).

Source of the values: patent US20220211796A1, “PEPTIDE ANTIBIOTICS AND METHODS OF USE THEREOF” (priority 2019, published 2022).
